The results in this text go back to patent US10010607B2, “Method for preparing viral particles with cyclic dinucleotide and use of said particles for inducing immune response” (priority 2014, dated 2018).

The test system of one experiment is HEK293 cells. The class given is cell-based, human. The following applies: for IFN induction by HIV-1-GFP from inhibitor-treated cGAS-reconstituted producer cells: 20 μM GW4869 or 60 μM Ac-DEVD-CHO during virus preparation; for IFN response in target cells in the presence of inhibitor: HEK293 cells infected with HIV-1-GFP from cGAS expressing cells, inhibitor 5 μM 1 hour prior to infection.

The test system of a further experiment is IFNβ promoter reporter. It counts as cell-based, human. The following applies: HEK293 cells transfected with 2 μg 2′-3′-cGAMP, 24 hours.

With Ac-DEVD-CHO, the “IFN induction by HIV-1-GFP from inhibitor-treated cGAS-reconstituted producer cells” value in the experiment on HEK293 cells is recorded as “did not diminish IFN induction”. On to `Cc1ccnc2c1NC(=O)c1cccnc1N2C1CC1` [nevirapine], for which the “IFN response in target cells in the presence of inhibitor” value in the experiment with HEK293 cells was “independent”. With `O=C(/C=C/c1ccc(/C=C/C(=O)Nc2ccc(C3=NCCN3)cc2)cc1)Nc1ccc(C2=NCCN2)cc1` [GW4869], the “IFN induction by HIV-1-GFP from inhibitor-treated cGAS-reconstituted producer cells” value in the experiment on HEK293 cells is reported as “did not diminish IFN induction”. `Nc1nc2c(ncn2[C@@H]2O[C@@H]3COP(=O)(O)O[C@H]4[C@@H](O)[C@H](n5cnc6c(N)ncnc65)O[C@@H]4COP(=O)(O)O[C@@H]2[C@@H]3O)c(=O)[nH]1` [cGAMP, 2′-3′-cyclic GMP-AMP]: the “IFN induction in response to cGAMP (IFNβ promoter reporter)” value with IFNβ promoter reporter was “induce IFN”.

`Cc1nnc(C(=O)NC(C)(C)c2nc(C(=O)NCc3ccc(F)cc3)c(O)c(=O)n2C)o1` [raltegravir]: the “IFN response in target cells in the presence of inhibitor” value with HEK293 cells is on record as “independent”.
